Experimental data from PubChem BioAssay AID330 (DTP/NCI, 2004).
“And” between values parts separate entries of the source, which are not always exact repeats. Equal entries are not always repeated. Toxic doses and inconclusive results are not listed. Rule for the calls: active = survival T/C of 150% or more; inactive = T/C below 125% in these data.

Tested on: P388 leukemia ip, CD2F1 mice, survival T/C
Experiment: NCI In Vivo Anticancer Drug Screen. Data for tumor model P388 Leukemia (intraperitoneal) in CD2F1 (CDF1) mice
Conditions: endpoint: median survival time, higher = longer survival
Procedure: The antitumor activity of compounds was measured in mice bearing transplantable tumors. Survival or tumor size were measured and the results are expressed as the measurement made in the treated group (T) divided by the measurement made in the vehicle treated control group (C). The tumor model used in this assay is P388 Leukemia (intraperitoneal) in CD2F1 (CDF1) mice

[1] = dose: 60.0 mg/kg/injection, schedule: Q01DX005 (ip), vehicle: saline with Tween-80
[2] = dose: 120.0 mg/kg/injection, schedule: Q01DX005 (ip), vehicle: saline with Tween-80
[3] = dose: 240.0 mg/kg/injection, schedule: Q01DX005 (ip), vehicle: saline with Tween-80
[4] = dose: 50.0 mg/kg/injection, schedule: Q01DX009 (ip), vehicle: saline
[5] = dose: 100.0 mg/kg/injection, schedule: Q01DX009 (ip), vehicle: saline
[6] = dose: 12.5 mg/kg/injection, schedule: Q01DX009 (ip), vehicle: saline with Tween-80
[7] = dose: 25.0 mg/kg/injection, schedule: Q01DX009 (ip), vehicle: saline with Tween-80
[8] = dose: 50.0 mg/kg/injection, schedule: Q01DX009 (ip), vehicle: saline with Tween-80
[9] = dose: 100.0 mg/kg/injection, schedule: Q01DX009 (ip), vehicle: saline with Tween-80
[10] = dose: 50.0 mg/kg/injection, schedule: Q01DX005 (ip), vehicle: saline with Tween-80

Measured: T/C

Nc1ccccc1C(=O)CC1OC(=O)c2ccccc21 (stereo not drawn)
inactive: [1] 105 % of control | [2] 105 % of control | [3] 97 % of control

COc1ccc(/C=C2\CCn3c2nc2ccccc2c3=O)cc1
inactive: dose: 89.75 mg/kg/injection, schedule: Q04DX002 (ip), vehicle: Klucel (hydroxypropylcellulose) (HPC) 103 % of control | dose: 179.5 mg/kg/injection, schedule: Q04DX002 (ip), vehicle: Klucel (hydroxypropylcellulose) (HPC) 102 % of control | dose: 359.0 mg/kg/injection, schedule: Q04DX002 (ip), vehicle: Klucel (hydroxypropylcellulose) (HPC) 102 % of control

CCCCOC(=O)Nc1ccc(C)c(NC(=O)OCCCC)c1
inactive: [4] 100 % of control | [5] 102 % of control | dose: 200.0 mg/kg/injection, schedule: Q01DX009 (ip), vehicle: saline 100 % of control

COc1n[n+]([O-])c(Cl)cc1[N+](=O)[O-]
inactive: [6] 109 % of control | [7] 108 % of control | [8] 117 % of control | [9] 113 % of control

N=c1c2ncn(C3OC(CO)C(O)C3O)c2ncn1O (stereo not drawn)
inactive: dose: 6.25 mg/kg/injection, schedule: Q01DX005 (ip), vehicle: saline 97 % of control | dose: 12.5 mg/kg/injection, schedule: Q01DX005 (ip), vehicle: saline 101 % of control | dose: 25.0 mg/kg/injection, schedule: Q01DX005 (ip), vehicle: saline 101 % of control and 112 % of control | [10] 105 % of control | dose: 50.0 mg/kg/injection, schedule: Q01DX005 (ip), vehicle: saline 112 % of control and 94 % of control | dose: 100.0 mg/kg/injection, schedule: Q01DX005 (ip), vehicle: saline with Tween-80 100 % of control | dose: 200.0 mg/kg/injection, schedule: Q01DX005 (ip), vehicle: saline with Tween-80 108 % of control

Nc1ccc(-c2ccc(N)cc2)cc1
inactive: [9] 90 % of control | dose: 200.0 mg/kg/injection, schedule: Q01DX009 (ip), vehicle: saline with Tween-80 100 % of control | dose: 400.0 mg/kg/injection, schedule: Q01DX009 (ip), vehicle: saline with Tween-80 95 % of control

OC1CC2CCC(C1)N2 (stereo not drawn)
inactive: dose: 60.0 mg/kg/injection, schedule: Q01DX005 (ip), vehicle: saline 100 % of control | dose: 120.0 mg/kg/injection, schedule: Q01DX005 (ip), vehicle: saline 96 % of control

N=Cc1cc([N+](=O)[O-])ccc1O
inactive: [1] 105 % of control | [2] 104 % of control

O=C1C=CC(=O)N1n1cccc1
inactive: dose: 6.25 mg/kg/injection, schedule: Q01DX009 (ip), vehicle: Klucel (hydroxypropylcellulose) (HPC) 105 % of control | dose: 12.5 mg/kg/injection, schedule: Q01DX009 (ip), vehicle: Klucel (hydroxypropylcellulose) (HPC) 98 % of control | dose: 25.0 mg/kg/injection, schedule: Q01DX009 (ip), vehicle: Klucel (hydroxypropylcellulose) (HPC) 90 % of control

CCOc1ccc(C(C[N+](=O)[O-])Sc2ccccc2N)cc1 (stereo not drawn)
inactive: [1] 97 % of control | [2] 106 % of control | [3] 113 % of control

CS(=O)(=O)OC1C(O)C(n2cnc3c(N)ncnc32)C(O)C(OS(C)(=O)=O)C1OS(C)(=O)=O (stereo not drawn)
inactive: [1] 98 % of control | [2] 95 % of control | [3] 96 % of control

CC(=O)Nc1cc2cc(N=CN(C)C)ccc2oc1=O
inactive: dose: 60.0 mg/kg/injection, schedule: Q01DX005 (ip), vehicle: Klucel + Tween-80 99 % of control | dose: 120.0 mg/kg/injection, schedule: Q01DX005 (ip), vehicle: Klucel + Tween-80 104 % of control

Cc1c[n+]([O-])ccc1Br
inactive: dose: 6.25 mg/kg/injection, schedule: Q01DX009 (ip), vehicle: water 99 % of control | dose: 12.5 mg/kg/injection, schedule: Q01DX009 (ip), vehicle: water 90 % of control | dose: 25.0 mg/kg/injection, schedule: Q01DX009 (ip), vehicle: water 100 % of control | dose: 50.0 mg/kg/injection, schedule: Q01DX009 (ip), vehicle: water 101 % of control

Nc1cc(Cl)ccc1-c1ccccc1
inactive: dose: 100.0 mg/kg/injection, schedule: Q01DX009 (ip), vehicle: Klucel (hydroxypropylcellulose) (HPC) 95 % of control | dose: 200.0 mg/kg/injection, schedule: Q01DX009 (ip), vehicle: Klucel (hydroxypropylcellulose) (HPC) 92 % of control

COc1cc(C(=O)CC(=O)Cc2ccc3ccccc3n2)cc(OC)c1OC
inactive: dose: 0.93 mg/kg/injection, schedule: Q01DX005 (ip), vehicle: saline with Tween-80 102 % of control | dose: 1.88 mg/kg/injection, schedule: Q01DX005 (ip), vehicle: saline with Tween-80 103 % of control | dose: 3.75 mg/kg/injection, schedule: Q01DX005 (ip), vehicle: saline with Tween-80 98 % of control | [2] 90 % of control | [3] 97 % of control

CC1=NCCN=C(C)C1[N+](=O)[O-]
inactive: [4] 91 % of control | [5] 87 % of control

NC(=S)N/N=C\C=N\Nc1ccccc1
inactive: dose: 100.0 mg/kg/injection, schedule: Q04DX003 (ip), vehicle: Klucel (hydroxypropylcellulose) (HPC) 100 % of control | dose: 200.0 mg/kg/injection, schedule: Q04DX003 (ip), vehicle: Klucel (hydroxypropylcellulose) (HPC) 100 % of control

COc1ccc(N2C(=O)C3C4C=CC(C3C2=O)N(C)C4=O)cc1 (stereo not drawn)
inactive: dose: 100.0 mg/kg/injection, schedule: Q04DX002 (ip), vehicle: saline with Tween-80 101 % of control | dose: 200.0 mg/kg/injection, schedule: Q04DX002 (ip), vehicle: saline with Tween-80 98 % of control | dose: 400.0 mg/kg/injection, schedule: Q04DX002 (ip), vehicle: saline with Tween-80 87 % of control

CC1(c2ccc(Cl)cc2)NC(=O)N(CN2CCCCC2)C1=O (stereo not drawn)
inactive: [6] 100 % of control | [7] 100 % of control | [8] 100 % of control | dose: 50.0 mg/kg/injection, schedule: Q04DX003 (ip), vehicle: saline sonified 100 % of control | dose: 100.0 mg/kg/injection, schedule: Q04DX003 (ip), vehicle: saline sonified 107 % of control | dose: 200.0 mg/kg/injection, schedule: Q04DX003 (ip), vehicle: saline sonified 100 % of control

CCOc1nc2ccccc2nc1OCC
inactive: dose: 50.0 mg/kg/injection, schedule: Q01DX005 (ip), vehicle: Klucel (hydroxypropylcellulose) (HPC) 95 % of control | dose: 100.0 mg/kg/injection, schedule: Q01DX005 (ip), vehicle: Klucel (hydroxypropylcellulose) (HPC) 104 % of control

CCOC1=C(C)C(N(CC)CC)=NS(=O)(=O)c2ccccc21
inactive: dose: 100.0 mg/kg/injection, schedule: Q01DX001 (ip), vehicle: Klucel (hydroxypropylcellulose) (HPC) 99 % of control | dose: 200.0 mg/kg/injection, schedule: Q01DX001 (ip), vehicle: Klucel (hydroxypropylcellulose) (HPC) 103 % of control | dose: 400.0 mg/kg/injection, schedule: Q01DX001 (ip), vehicle: Klucel (hydroxypropylcellulose) (HPC) 98 % of control

CCOC(=O)/C=C(\C)NC(C)=NC(C)(C)C
inactive: [4] 93 % of control | [5] 89 % of control

C=CC[N+](CC=C)(CC=C)CC[N+](CC=C)(CC=C)CC=C
inactive: [6] 97 % of control | [7] 101 % of control | [8] 105 % of control

Cc1noc(NS(=O)(=O)c2ccc(N=Nc3cc(N=Nc4ccc(S(=O)(=O)Nc5onc(C)c5C)cc4)c4c(NC(=O)C(Cl)Cl)cccc4c3O)cc2)c1C (tested in a mixture with another compound)
inactive: [10] 117 % of control and 118 % of control
